US4452787A, “1-Substituted tricyclic quinazolinones having biological activity as tranquilizers” (Sandoz, Inc., priority 1982, dated 1984)

Tested on: benzodiazepine receptors
Assay: Flunitrazepam Receptor Binding Assay, FBA Test No. 1 (3H-flunitrazepam displacement, calf caudate)
Details: final concentration 1×10^-6 M, lower = more displacement of 3H-flunitrazepam, 1 µM

SMILES	Response - % of Control (percent specifically bound compared to control)
O=c1c2cc(Cl)ccc2nc2n1CCN2Cc1ccccc1 [Example 2A]	1 % of Control
CC(c1ccccc1)N1CCn2c1nc1ccc(Cl)cc1c2=O (single isomer, unassigned) [Example 2D]	15 % of Control
O=c1c2cc(Cl)ccc2nc2n1CCN2Cc1ccc(Cl)cc1 [Example 2E, 1-(p-chlorobenzyl)-7-chloro-2,3-dihydro-imidazo[2,1-b]quinazolin-5(1H)-one]	5 % of Control
CC1Cn2c(nc3ccc(Cl)cc3c2=O)N1Cc1ccccc1 (stereo not shown) [Example 2B]	5 % of Control
